# Measurements reported in doi:10.1101/2023.05.15.540887, “Comparative analysis of drug-like EP300/CREBBP acetyltransferase inhibitors” (bioRxiv, 2023).
# “And” between values parts separate entries of the source, which are not always exact repeats. Equal values may be shown once.
# Legend:
# [1] = tested on: histone H3 acetylation in T-47D cells; assay: Quantitative LC-MS analysis of histone H3 acetylation in T-47D cells; type: cell-based, human; details: 24 h
# Description: In principle the phenotype elicited by any single small molecule can be due to either an on- or off-target effect; however, if multiple chemically distinct small molecules designed to target a single gene all elicit the same phenotype, one’s confidence in their on-target mechanism becomes greater. As such, we sought to apply our knowledge of the comparative potencies of 1-3 to test whether the simplest phenotype caused by EP300/CREBBP inhibitors – cell death – was consistent with their effects on histone acetylation and a putative on-target mechanism. Compounds 1-3 were submitted for analysis in the NCI-60 screen, which has been used since 1990 to analyze the growth inhibitor effects of small molecules across a range of transformed cell lines derived from diverse tissues of origin including colorectal, renal, ovarian, prostate, lung, breast, and central nervous system tumors.[28] […] These trends were further confirmed using an orthogonal ATP-Glo assay in MCF-7 cells (Fig. S2). Subsequently, the COMPARE algorithm was used to compare the patterns of growth inhibition elicited by 1-3 in the NCI-60 assay against the >150,000 compounds analyzed in the screen to date.[29] […] Finally, the specificity of CPI-1612 (3) was directly assessed using quantitative LC-MS analysis of histone acetylation in treated cells,[33] focusing on four abundant histone acetylation markers whose writers are well-characterized: H3K9Ac (written by KAT2A/B), H3K14Ac (KAT7), H3K18Ac (EP300/CREBBP), and H3K23Ac (KAT6A/B; Fig. 3e).[26] […] An increase in the levels of singly modified H3K23Ac peptide coincided with specific loss of H3K18Ac from K18/K23 diacetylated peptide, indicative of orthogonal regulation. Overall, the parallel trends in the biochemical and cellular potencies of EP300/CREBBP inhibitors are consistent with an on-target mechanism for 1-3 and further highlight the relatively high potency of CPI-1612 (3).
# T-47D cells were plated at 4 x 10^6 cells per plate in 10 cm dishes in 10 mL of media. After 16-24 h cells were treated with 5, 50, or 500 nM of 3. Compound 3 was dosed from stock solutions equal to 100x the final concentration in RPMI-1640. When necessary additional DMSO was added to maintain a constant concentration of 0.1%. Controls were treated with vehicle DMSO (0.1%). After 24 h, cells were washed with 5 mL ice cold 1x PBS, scraped in 5 mL of 1x PBS, transferred to a pre-chilled 15 mL tube, centrifuged (800 rcf x 5 min), and either snap frozen or immediately processed via the following protocol.^5 Pellets were washed twice and resuspended in 400 µL NIB (15 mM pH 7.5 Tris-HCl, 60 mM KCl, 15 mM NaCl, 5 mM MgCl2, 1 mM CaCl2, 250 mM sucrose, 1X protease inhibitor cocktail [Cell Signaling Technology #5871]), 1 mM DTT, and 10 mM sodium butyrate) with 0.3% IGEPAL CA-630 to lyse cells. Suspensions were transferred into tubes on ice and incubated for >5 min. Nuclei were pelleted (700 rcf, 4 °C , 5 min) and the supernatant discarded. Pelleted nuclei were subjected to two cycles of a wash with 500 µL NIB (without IGEPAL CA-630) followed by centrifugation (700 rcf, 4 °C , 5 min) in order to remove all IGEPAL CA-630. Nuclei were re-suspended in 200 µL 0.2 N H2SO4 and rotated at 4 °C for 2 h. Samples were then centrifuged (3,400 rcf, 4 °C , 5 min) and supernatants transferred into new tubes (pellets discarded). 66 µL of 100% TCA was added to each sample (final TCA concentration: 20%) and tubes were inverted once. Histones were precipitated at 4 °C for 16 h, then centrifuged (3,400 rcf, 4 °C , 5 min) and supernatants carefully discarded, with histones now visible as films on the sides and at the bottom of tubes. Histones were subjected to two cycles of washing (0.5 mL of ice-cold acetone + 1% 1M HCl, followed by 1 mL of 100% ice-cold acetone) followed by centrifugation (11,000 rcf, 4 °C , 5 min) after each step. Samples were air dried at room temperature and resuspended in 30 µL of ddH2O. […]
# MDA-MB-231/ATCC = assay: NCI-60 growth inhibition (sulforhodamine B); type: cell-based; details: Homo sapiens, Breast Cancer, negative log of Molar value, LCONC -8, EXPID 2301NS84, read-out: IC50 NLOGVALUE
# SF-539 = assay: NCI-60 growth inhibition (sulforhodamine B); type: cell-based, human; details: SF-539 (CNS Cancer), negative log of Molar conc., LCONC -8
smiles,measurement,setting,value
C[C@H](CN[C@@H](C(=O)Nc1ccc(-c2cnn(C)c2)cn1)c1ccccc1)c1ccc(C#N)cc1 [CPI-1612],"specificity on histone H3 acetylation marks (H3K9Ac, H3K14Ac, H3K18Ac, H3K23Ac)","[1]; T-47D cells, 5, 50 or 500 nM, LC-MS",affected the abundance of only the EP300/CREBBP-dependent peptides containing H3K18Ac
same,"ratio normalized to largest mean (vehicle or 500 nM), H3_9_17 K9ac (K9Ac)","[1]; T-47D, 5 nM, Rep1-3",160.77 and 142.38
same,"ratio normalized to largest mean (vehicle or 500 nM), H3_18_26 K18ac (K18Ac)","[1]; T-47D, 5 nM, Rep1-3",31.25 and 26.23 and 16.75
same,"ratio normalized to largest mean (vehicle or 500 nM), summed H3_9_17 K14ac peptides (K14Ac)","[1]; T-47D, 5 nM, Rep1-3",93.75 and 92.27 and 95.59
same,"ratio, H3_9_17 K9ac (K9Ac)","[1]; T-47D, 5 nM, Rep1-3",0.039 and 0.034
same,"ratio, H3_18_26 K18ac (K18Ac)","[1]; T-47D, 5 nM, Rep1-3",0.0063 and 0.0053 and 0.0034
same,"ratio, H3_18_26 K18acK23ac (K18K23Ac)","[1]; T-47D, 5 nM, Rep1-3",0.0043 and 0.0044 and 0.0039
same,"ratio, H3_18_26 K23ac (K23Ac)","[1]; T-47D, 5 nM, Rep1-3",0.2133 and 0.2165 and 0.1842
same,"ratio, summed H3_9_17 K14ac peptides (K14Ac)","[1]; T-47D, 5 nM, Rep1-3",0.181 and 0.179 and 0.185
same,"ratio normalized to largest mean (vehicle or 500 nM), summed H3_9_17 K14ac peptides (K14Ac)","[1]; T-47D, 50 nM, Rep1-3",92.31 and 100.80 and 86.46
same,"ratio, H3_18_26 K23ac (K23Ac)","[1]; T-47D, 50 nM, Rep1-3",0.2929 and 0.2070 and 0.3135
same,"ratio, summed H3_9_17 K14ac peptides (K14Ac)","[1]; T-47D, 50 nM, Rep1-3",0.167 and 0.179 and 0.195
same,"ratio normalized to largest mean (vehicle or 500 nM), H3_18_26 K18ac (K18Ac)","[1]; T-47D, 500 nM, Rep1-3",2.61 and 1.89 and 1.57
same,"ratio normalized to largest mean (vehicle or 500 nM), summed H3_9_17 K14ac peptides (K14Ac)","[1]; T-47D, 500 nM, Rep1-3",103.05 and 88.46 and 106.21
same,"ratio, H3_18_26 K18ac (K18Ac)","[1]; T-47D, 500 nM, Rep1-3",0.0005 and 0.000379 and 0.0003
same,"ratio, H3_18_26 K23ac (K23Ac)","[1]; T-47D, 500 nM, Rep1-3",0.2977 and 0.3570 and 0.3048
same,"ratio, summed H3_9_17 K14ac peptides (K14Ac)","[1]; T-47D, 500 nM, Rep1-3",0.199 and 0.171 and 0.206
same,IC50,MDA-MB-231/ATCC,> 100 µM
same,GI50,"SF-539; Homo sapiens, read-out: GI50 NLOGVALUE (converted)",2.09 µM
same,IC50,"SF-539; Homo sapiens, read-out: IC50 NLOGVALUE",> 100 µM
same,CC50,"SF-539; Homo sapiens, read-out: LC50 NLOGVALUE",> 100 µM
same,TGI NLOGVALUE,SF-539,4
